“And” between values parts separate entries of the source, which are not always exact repeats. Equal values may be shown once. Where a name gives a salt, the structure may show the parent alone. Read-outs that look alike come from different tables or passages of the source.

Consider three compounds from US20140219986A1, “DOSING REGIMENS FOR THE TREATMENT OF FABRY DISEASE” (AMICUS THERAPEUTICS ,INC., priority 2011, published 2014).

The nature of data set [1]: Phase 2 co-administration study: safety. The class given is in vivo, human. From the text: Safety Parameters. Safety parameters will be assessed by review of changes in physical exam findings, vital signs, ECG changes over time, clinical labs and adverse events.
The safety parameters included adverse events (AEs), vital signs, clinical laboratory tests (hematology, serum chemistry, and urinalysis), electrocardiograms (ECGs), physical examinations, and use of concomitant medications.

For a further data set, the target named is T1, agalsidase alfa (Homo sapiens, UniProt P06280).
T1 construct: purchased Shire Human Genetic Therapies (Replagal®)
T1 sequence (P06280 32-429): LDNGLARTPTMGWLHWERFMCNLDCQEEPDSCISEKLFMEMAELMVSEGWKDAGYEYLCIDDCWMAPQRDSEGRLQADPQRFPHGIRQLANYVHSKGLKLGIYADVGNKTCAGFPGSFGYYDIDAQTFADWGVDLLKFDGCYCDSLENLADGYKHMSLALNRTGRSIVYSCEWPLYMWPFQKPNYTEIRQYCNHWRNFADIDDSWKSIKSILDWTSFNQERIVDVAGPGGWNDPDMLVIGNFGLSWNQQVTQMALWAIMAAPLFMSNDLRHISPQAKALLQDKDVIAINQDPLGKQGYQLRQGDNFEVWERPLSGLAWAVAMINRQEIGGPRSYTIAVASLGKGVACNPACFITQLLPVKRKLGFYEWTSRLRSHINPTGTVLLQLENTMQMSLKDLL
The data set is described as follows: In vitro thermal denaturation assay of agalsidase alfa. The class given is binding. The protocol:
The effect of migalastat hydrochloride on the physical stability of agalsidase alfa was evaluated with an in vitro thermal denaturation assay.

In data set [2] the target is T2, rhα-Gal A (Homo sapiens, UniProt P06280).
T2 sequence (P06280 32-429): T1 sequence (P06280 32-429)
The data set is described as follows: Oral migalastat hydrochloride with rhα-Gal A injection in the GLA deficient mouse, tissue α-Gal A and GL-3. The settings on record: 30, 100 or 300 mg/kg oral 30 min prior to and 2 hours after rhα-Gal A, vs rhα-Gal A alone. Type of data set: in vivo.

For data set [3] the following is noted: male GLA-deficient mice; 3 and 30 mg/kg three times a week for four weeks with Fabrazyme 1 mg/kg i.v. once a week. The protocol: A preliminary study in GLA deficient mice has been conducted evaluating the safety of co-administered migalastat hydrochloride and Fabrazyme®. Migalastat hydrochloride was administered three times a week for four weeks at doses of 3 and 30 mg/kg in combination with Fabrazyme® administered intravenously once a week at a dose of 1 mg/kg.

The target of data set [4] is T2, rhα-Gal A. Put plainly: In vitro stabilization of rhα-Gal A at neutral pH (thermal denaturation and activity). Type of data set: biochemical. From the text: Migalastat hydrochloride stabilizes wild-type α-Gal A in vitro and as well as in vivo.
Data set [5] concerns the target T3, α-Gal A (Homo sapiens, UniProt P06280).
T3 construct: purchased Genzyme Corporation (Fabrazyme®)
T3 sequence (P06280 32-429): T1 sequence (P06280 32-429)
The data set is described as follows: Phase 2 co-administration study: PBMC α-Gal A activity (4-MUG). The settings on record: 150 mg migalastat HCl + 0.5 mg/kg agalsidase beta, N=5 (Example 3). Type of data set: in vivo.

Data set [6] concerns the target T3, α-Gal A. Put plainly: Phase 2 co-administration study: skin α-Gal A activity (4-MUG). Type of data set: in vivo. The protocol: α-Gal A Enzyme Levels in Skin. α-Gal A enzyme levels will be examined in skin biopsy samples. Skin biopsies will be done using a “punch” device. One piece will be removed at each visit. α-Gal A levels in skin will be determined by a validated assay measuring enzyme activity using 4-MUG, with and without Con A. α-Gal A protein levels will be measured by Western blotting using anti-human Gal A antibody.
(§1) Methods. The study was conducted according to the methods described in Example 1. Specifically, this was an open-label, single dose, non-randomized, fixed-sequence, 2-stage study. Stage 1 comprised of 3 periods: • (1) agalsidase beta 0.5 mg/kg or 1.0 mg/kg (infusion for about 2 hours) or agalsidase alpha 0.2 mg/kg (infusion for about 40 min.) enzyme replacement montherapy (ERT); • (2) ERT+150 mg migalastat oral tablet (single dose) co-administration, migalastat administered 2 hrs. prior to ERT; and • (3) 150 mg migalastat monotherapy.
(§2) α-Gal A catalyzes the initial step in breakdown of substrate GL-3 in vivo. α-Gal A also acts on other substrates with the same α-bond such as the artificial low-molecular weight florescent substrate, 4-MUG. α-Gal A activity on 4-MUG was measured in vitro from plasma, skin, and PBMC samples following serial dilutions to dissociate migalastat.
(§3) 6 patients with plasma, skin, and PBMC α-galactosidase A activity from Stage 1, Periods 1 and 2, were evaluated. Four patients received 0.5 mg/kg agalsidase beta ERT and 2 patients received 1.0 mg/kg agalsidase beta ERT during Period 1, and co-administration of 150 mg migalastat 2 hours prior to initiation of the same dose of ERT during Period 2.
(§4) Serial blood samples were taken to 24 hours post dose for plasma α-Gal A activity and protein levels each period. Blood samples for α-Gal A activity in peripheral blood mononuclear cells (PBMCs) were taken at predose and on Days 1, 2, 7, and 14 of each period. Punch biopsies for skin α-Gal A activity were taken at predose Period 1 and on Days 2 and 7 during Periods 1 and 2. Plasma α-Gal A activity PK parameters include Cmax, Tmax, AUC0-t, AUC0-inf, and t1/2. Pharmacokinetic parameters are calculated using standard non-compartmental procedures (WINNONLIN version 5.0 or higher).
(§5) α-Gal A activity in plasma skin, and PBMC lysates were measured by a fluorescence enzyme assay using 4-methylumbelliferyl-α-D-galactopyranoside (4-MUG). α-Gal A activity on 4 MUG was measured in vitro following serial dilutions to dissociate migalastat.

The target in data set [7] is T3, α-Gal A. Put plainly: Phase 2 co-administration study: Western blot of plasma α-Gal A protein. The class given is in vivo. The conditions noted are these: 5 out of 7 subjects. The protocol:
Migalastat HCl and rhα-Gal A Pharmacokinetics. Concentrations of migalastat HCl in blood samples will be measured in plasma using a validated LC-MS/MS assay. α-Gal A levels in plasma will be determined by a validated assay measuring enzyme activity using 4-MUG, with and without Con A. α-Gal A protein levels will be measured by Western blotting using anti-human Gal A antibody.
Western blot analysis of α-Gal A protein were performed on plasma samples using anti-human α-Gal A antibody. An rhα-Gal A (agalsidase) standard curve was run to calculate the appropriate concentration of α-Gal protein in each sample.
On the technique in general: In western blotting, separated proteins are transferred to a membrane and probed.

Data set [8] concerns the target T3, α-Gal A. Put plainly: Phase 2 co-administration study: PBMC α-Gal A activity (4-MUG). The conditions noted are these: for individual patient increases in PBMC α-Gal A activity: 1 mg/kg. Type of data set: in vivo. The protocol:
WBC α-Gal A Levels. α-Gal A levels in WBCs will be determined in blood samples by a validated assay measuring enzyme activity using 4-MUG, with and without Con A. α-Gal A protein levels will be measured by Western blotting using anti-human Gal A antibody.
as §1, §2, §3, §4, §5

Data set [9] addresses T3, α-Gal A. Put plainly: Phase 2 co-administration study: skin α-Gal A activity (4-MUG). Type of data set: in vivo. The conditions noted are these: 150 mg migalastat HCl + 0.5 mg/kg agalsidase beta, N=5 (Example 3).
For data set [10] the following is noted: cited from earlier work.
For data set [11] the following is noted: cited from earlier work. This is another data set of the same source.
For data set [12] the following is noted: cited from earlier work. The source holds these as a separate data set.
Where [13] appears, read: 150 mg migalastat + 1.0 mg/kg agalsidase beta, Day 2, N=2.
The mark [14] stands for this setting: 150 mg migalastat + 1.0 mg/kg agalsidase beta, Day 7, N=2.

Consider `OC[C@H]1NC[C@H](O)[C@@H](O)[C@H]1O` [migalastat hydrochloride, (2R,3S,4R,5S)-2-(hydroxymethyl)piperidine-3,4,5-triol], for which the safety and tolerability result in data set [1] (co-administration of 150 mg migalastat HCl with agalsidase beta) was “generally safe and well-tolerated”. Besides, in [1] (seven subjects, to date, one serious (TIA, prior to dosing), all considered unrelated to study drug), the “adverse events (AEs) reported” value turned out to be 12. The “melting temperature (Tm) of agalsidase alfa” value (“melting temperature (Tm)” for short) on agalsidase alfa (pH 5.2, 10 μM migalastat hydrochloride) came to 68 °C; at agalsidase alfa (pH 7.4, 10 μM migalastat hydrochloride) it was 59 °C. Besides, the “GL-3 levels in skin, heart, kidney, and plasma” value at rhα-Gal A [2] is on record as “dose-dependent reduction”. For the same compound, the “tissue α-Gal A levels” value at rhα-Gal A [2] was “dose-dependent increase”. Besides, in [3], the “survival, clinical condition, hematology and clinical chemistry parameters” value was “no direct drug-related changes”. Besides, the “stabilization of rhα-Gal A” value on rhα-Gal A [4] was “significant time- and concentration-dependent increases in stabilization”. In addition, the “mean increase in PBMC α-Gal A activity” value on α-Gal A [5] (Day 2) was determined as 2.4 fold; on α-Gal A [5] (Day 7), 1.9 fold; at α-Gal A [5] (Day 14), 2.1 fold; on α-Gal A [8] (150 mg migalastat + 0.5 mg/kg agalsidase beta, Day 2, N=4 (Example 2)), 2.3 fold; on α-Gal A [8] (150 mg migalastat + 0.5 mg/kg agalsidase beta, Day 7, N=4 (Example 2)), 2.0 fold; at α-Gal A [8] (150 mg migalastat + 0.5 mg/kg agalsidase beta, Day 14, N=4 (Example 2)) it was 2.2 fold. The “mean increase in PBMC α-Gal A activity” value on α-Gal A [8] (setting [13]) amounted to 1.8 fold; on α-Gal A [8] (setting [14]), 4.8 fold; at α-Gal A [8] (150 mg migalastat + 1.0 mg/kg agalsidase beta, Day 14, N=2) it was 3.5 fold. Also, the “individual patient increases in skin α-Gal A activity” value at α-Gal A [6] (150 mg migalastat + 0.5 mg/kg agalsidase beta, Day 2 (Example 2), 0.5 mg/kg) was 2.8 fold and 3.9 fold and 1.1 fold; at α-Gal A [6] (150 mg migalastat + 1.0 mg/kg agalsidase beta, Day 2, 1 mg/kg), 1.6 fold and 2.1 fold; at α-Gal A [6] (150 mg migalastat + 1.0 mg/kg agalsidase beta, Day 7, 1 mg/kg) it was 1.7 fold and 1.2 fold. Also, the “mean increase in skin α-Gal A activity” value came to 2.6 fold at α-Gal A [6] (150 mg migalastat + 0.5 mg/kg agalsidase beta, Day 2, N=3 (Example 2)); 1.9 fold on α-Gal A [6] (setting [13]); 1.5 fold at α-Gal A [6] (setting [14]); 2.6 fold on α-Gal A [9] (Day 2); 1.4 fold on α-Gal A [9] (Day 7). Further, on α-Gal A [6] (150 mg migalastat + 0.5 mg/kg agalsidase beta, Day 7 (Example 2)), the “change in skin α-Gal A activity from Period 1” value was “No change”. Besides, at α-Gal A [6] (150 mg migalastat + 0.5 or 1.0 mg/kg agalsidase beta, Day 7), the “patients with increased skin α-Gal A activity following co-administration” value was 3 of 5 and four. Moreover, the “plasma α-Gal A protein, Period 2 (co-administration)/Period 1 (ERT alone) AUC ratio” value on α-Gal A [7] was “No change”. Also, the “individual patient increase range in PBMC α-Gal A activity” value at α-Gal A [8] (150 mg migalastat + 0.5 mg/kg agalsidase beta, Day 2) is on record as 1.4-3.1 fold; at α-Gal A [8] (150 mg migalastat + 0.5 mg/kg agalsidase beta, Day 7) it was 1.4-2.3 fold; at α-Gal A [8] (150 mg migalastat + 0.5 mg/kg agalsidase beta, Day 14) it was 1.7-2.8 fold. For the same compound, the “individual patient increases in PBMC α-Gal A activity” value at α-Gal A [8] (150 mg migalastat + 1.0 mg/kg agalsidase beta, Day 2) was 1.1 fold and 2.5 fold; at α-Gal A [8] (150 mg migalastat + 1.0 mg/kg agalsidase beta, Day 7), 3.6 fold and 6.0 fold; at α-Gal A [8] (150 mg migalastat + 1.0 mg/kg agalsidase beta, Day 14) it was 1.7 fold and 5.4 fold.
Regarding “agalsidase alfa: recombinant α-Gal A enzyme replacement therapy (Replagal®, Shire Human Genetic Therapies)”, the AUC versus dose result in data set [10] (0.1 to 0.4 mg/kg) is on record as “linearly proportional to dose”. In data set [10] (10-week study), the IgE antibodies entry is “No IgE antibodies were detected” and the “patients who became IgG positive during the study” value is on record as “Two of 18”. Besides, the “Plasma GL-3 levels reduction” value in data set [10] (all dose groups, independent of dose and dosing frequency) is given as “approximately 50%”. Besides, the mean half life in data set [10] (doses 0.1 to 0.4 mg/kg agalsidase alfa, ERT naïve adult male Fabry patients) was 56 to 76 min. In addition, the “melting temperature (Tm)” value with agalsidase alfa (pH 5.2, enzyme alone) came out at 58 °C. Moreover, the “melting temperature (Tm)” value with agalsidase alfa (pH 7.4, enzyme alone) was “approximately 51 °C”.
As for “agalsidase beta: recombinant α-Gal A enzyme replacement therapy (Fabrazyme®; Genzyme Corporation)”, the “patients with decreased skin α-Gal A activity relative to baseline” value with α-Gal A [6] (agalsidase beta alone, 0.5 mg/kg infusion, Day 2) worked out at 2. Also, the “pharmacokinetics, dose linearity” value in data set [11] (AUC increasing and clearance decreasing disproportionally with dose) is reported as “non-linear pharmacokinetics”. The AUC increase entry in data set [11] (dose increased from 0.3 mg/kg to 1 mg/kg) is “approximately 6 fold”; in data set [11] (dose increased from 1 mg/kg to 3 mg/kg) it was around 8 fold. Also, the “PBMC α-Gal A activity relative to baseline” value in the data set with α-Gal A [8] (agalsidase beta alone, all patients, all time points) is “increased”. Also, the “maximal agalsidase concentrations and AUC values reduced, of baseline values” in data set [12] (adult patients with the highest titers of IgG) is “up to 26%”. Moreover, the “patients who developed IgG antibodies” value is reported as 79% in data set [12] (adult patients) and 69% in [12] (pediatric patients).
